Measured values from the supplement of paper PMC10307832.

Key:
Experiment in all cases: relative viability (nuclei count vs DMSO), 5 days (fraction); higher = more cells survive
NCI-H1755 = test system: NCI-H1755
In short: (§1)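 A single step with final 0.05% Triton X-100, 1% formaldehyde and 1 ug/ml Hoechst fixed the cells and stained nuclei 5 days after treatment. Lung cancer cell lines in 1536-well plates had been treated by pin tool the day after seeding with one drug alone or a fixed anchor-drug dose plus five library-drug doses (not always all listed) in √10 steps, and nuclei were counted on 4× images. Relative viability is the ratio of nuclei in treated wells to nuclei in vehicle wells, taken as the median of duplicate plates.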

NCI-H1944 = test system: NCI-H1944
In short: as §1

NCI-H2087 = test system: NCI-H2087
In short: as §1

NCI-H2170 = test system: NCI-H2170
In short: as §1

NCI-H2228 = test system: NCI-H2228
In short: as §1

NCI-H2405 = test system: NCI-H2405
In short: as §1

NCI-H3122 = test system: NCI-H3122
In short: as §1

NCI-H460 = test system: NCI-H460
In short: as §1

PC-3 [JPC-3] = test system: PC-3 [JPC-3]
In short: as §1

RERF-LC-KJ = test system: RERF-LC-KJ
In short: as §1

UMC-11 = test system: UMC-11
In short: as §1

CC1(C)CCC(c2ccc(Cl)cc2)=C(CN2CCN(c3ccc(C(=O)NS(=O)(=O)c4ccc(N[C@H](CCN5CCOCC5)CSc5ccccc5)c(S(=O)(=O)C(F)(F)F)c4)cc3)CC2)C1 [Navitoclax] + C[C@@H](Oc1cc(-c2cnn(C3CCNCC3)c2)cnc1N)c1c(Cl)ccc(F)c1Cl [Crizotinib] (partner 1 µM)
relative viability (NCI-H1755; first compound 0.1581 µM): 0.859
relative viability (NCI-H1755; first compound 0.5 µM): 0.89
relative viability (NCI-H1944; first compound 0.005 µM): 1.05
relative viability (NCI-H1944; first compound 0.01581 µM): 1.13
relative viability (NCI-H1944; first compound 0.05 µM): 0.798
relative viability (NCI-H1944; first compound 0.1581 µM): 1.14
relative viability (NCI-H1944; first compound 0.5 µM): 1.03
relative viability (NCI-H2087; first compound 0.005 µM): 0.911
relative viability (NCI-H2087; first compound 0.01581 µM): 0.766
relative viability (NCI-H2087; first compound 0.05 µM): 0.873
relative viability (NCI-H2087; first compound 0.1581 µM): 0.892
relative viability (NCI-H2087; first compound 0.5 µM): 0.976
relative viability (NCI-H2170; first compound 0.005 µM): 1.06
relative viability (NCI-H2170; first compound 0.01581 µM): 1.28
relative viability (NCI-H2170; first compound 0.05 µM): 1.21
relative viability (NCI-H2170; first compound 0.1581 µM): 1.06
relative viability (NCI-H2170; first compound 0.5 µM): 1.05
relative viability (NCI-H2228; first compound 0.005 µM): 0.633
relative viability (NCI-H2228; first compound 0.01581 µM): 0.553
relative viability (NCI-H2228; first compound 0.05 µM): 0.573
relative viability (NCI-H2228; first compound 0.1581 µM): 0.454
relative viability (NCI-H2228; first compound 0.5 µM): 0.52
relative viability (NCI-H2405; first compound 0.005 µM): 0.788
relative viability (NCI-H2405; first compound 0.01581 µM): 0.948
relative viability (NCI-H2405; first compound 0.05 µM): 0.824
relative viability (NCI-H2405; first compound 0.1581 µM): 0.838
relative viability (NCI-H2405; first compound 0.5 µM): 0.794
relative viability (NCI-H3122; first compound 0.005 µM): 0.254
relative viability (NCI-H3122; first compound 0.01581 µM): 0.308
relative viability (NCI-H3122; first compound 0.05 µM): 0.244
relative viability (NCI-H3122; first compound 0.1581 µM): 0.306
relative viability (NCI-H3122; first compound 0.5 µM): 0.292
relative viability (NCI-H460; first compound 0.005 µM): 0.805
relative viability (NCI-H460; first compound 0.01581 µM): 0.915
relative viability (NCI-H460; first compound 0.05 µM): 0.979
relative viability (NCI-H460; first compound 0.1581 µM): 0.894
relative viability (NCI-H460; first compound 0.5 µM): 0.874
relative viability (PC-3 [JPC-3]; first compound 0.005 µM): 1.01
relative viability (PC-3 [JPC-3]; first compound 0.01581 µM): 0.986
relative viability (PC-3 [JPC-3]; first compound 0.05 µM): 0.927
relative viability (PC-3 [JPC-3]; first compound 0.1581 µM): 0.991
relative viability (PC-3 [JPC-3]; first compound 0.5 µM): 0.963
relative viability (RERF-LC-KJ; first compound 0.005 µM): 0.825
relative viability (RERF-LC-KJ; first compound 0.01581 µM): 0.712
relative viability (RERF-LC-KJ; first compound 0.05 µM): 0.789
relative viability (RERF-LC-KJ; first compound 0.1581 µM): 0.796
relative viability (RERF-LC-KJ; first compound 0.5 µM): 0.833
relative viability (UMC-11; first compound 0.005 µM): 0.646
relative viability (UMC-11; first compound 0.01581 µM): 0.583
relative viability (UMC-11; first compound 0.1581 µM): 0.636
relative viability (UMC-11; first compound 0.5 µM): 0.401
